Data: US4211769A, “Preparations for vaginal administration” (Takeda Chemical Industries, Ltd., priority 1977, dated 1980)
Read-outs that look alike come from different tables or passages of the source.

Columns and labels:
matured female SD rats = format: in vivo, rat; conditions: vaginal, aqueous solution with 10% citric acid at pH 2.0
Description: A synthetic peptide (monoacetate.pentahydrate; (Pyr)Glu-His-Trp-Ser-Tyr-D-Leu-Leu-Arg-Pro-NH-C2 H5) was dissolved in aliquots of Clark-Lubs buffer [J. Bact. 2, (1), 109, 191(1971) [or Sorensen's buffer [Ergeb.Physiol. 12, 3931 (1912)] at pH 2-7 and each solution was supported on a piece (substantially-predetermined volume) of cotton and administered into the vaginas of rats to investigate the pH dependence of the ovulation-stimulating activity of the peptide.
Using matured female SD rats (120-150 days, body weights from 250 to 350 g), each preparation was vaginally administered during the diestrus and the animal was autopsied next morning to check for the occurrence of ovulation based on the presence or absence of ova in the ampulla.
The same peptide as that used in Example 12 was dissolved in 0.238 mol/liter aqueous solutions of various water-soluble aliphatic carboxylic acids which had been previously adjusted to pH 3.5 with small amounts of 10 N--NaOH. […]
The same peptide as used in Example 12 was employed as the active component. Citric acid was added to aliquots of phthalate buffer (pH 3.5) at the levels of addition of 1, 2, 5, 7 and 10% (W/V) and the pH of each solution was readjusted to pH 3.5 with a small amount of concentrated NaOH. […]

rat = format: in vivo
Source text: In terms of ovulation-stimulating action, a 30 times increase of stimulating effect was obtained over the control (without carboxylic acid) in the case of natural type LH-RH (Table 1). […] It is clear that a given pharmacological effect can be obtained at a dose equivalent to 5.2 times the intravenous dose or 3.1 times the subcutaneous dose. […] In view of these facts, it is obvious that the vaginal administration according to this invention is a very advantageous method of medication.
Thus, to achieve a given ovulation-stimulatingactivity, the vaginal preparation according to this invention requires only 2.6 times as much of peptide as by the intravenous route and 1.7 times as much of peptide as by the subcutaneous route. The unusual effectiveness of the vaginal preparation of this invention will also be apparent in view of the fact that oral administration requires 1900 times as much of peptide as by the intravenous route, rectal administration requires 82 times the dosage by the intravenous route, and vaginal administration with the oleaginous basis (Witepsol® S55) requires 26 times as much of peptide as by the intravenous route.

SMILES: CCNC(=O)[C@@H]1CCCN1C(=O)[C@H](CCCNC(=N)N)NC(=O)[C@H](CC(C)C)NC(=O)[C@@H](CC(C)C)NC(=O)[C@H](Cc1ccc(O)cc1)NC(=O)[C@H](CO)NC(=O)[C@H](Cc1c[nH]c2ccccc12)NC(=O)[C@H](Cc1c[nH]cn1)NC(=O)[C@@H]1CCC(=O)N1 [peptide of Example 12, (Pyr)Glu-His-Trp-Ser-Tyr-D-Leu-Leu-Arg-Pro-NH-C2 H5]
- ED50, ovulation-stimulating activity (matured female SD rats): 9.9 ng/100 g (body weight of rat)
- ED50, ovulation-stimulating activity (rat; intravenous route): 3.8 ng/100 g (body weight of rat)
- ED50, ovulation-stimulating activity (rat; subcutaneous route): 5.8 ng/100 g (body weight of rat)
